In ChEMBL document CHEMBL1157940, “Culicinin D, an antitumor peptaibol produced by the fungus Culicinomyces clavisporus, strain LL-12I252” (J Nat Prod, 2006):
≈ marks a conversion by molar mass, not a printed value. Calls of active or inactive are those of the source. No cut-off for these calls is given here. Numbered stars: 1 amine (or outer) side, 2 acyl side, 3 side chain; on linkers, the order of the positions; unused ones are H or OH. Square brackets hold non-standard residues; d marks the D form. Peptide text beside a SMILES is read from it. * marks the point of attachment. X1 = CCC(=O)CC(O)CC(C)C[C@H](N[*:1])C(=O)[*:2]; X2 = CCCCCCC(C)C[C@@H](N[*:1])C(=O)[*:2]; Aib = CC(C)(N)C(=O)O; Butyryl = CCCC(=O)*; X3 = CC(CNCCO)N*; βAla = NCCC(=O)O

What was measured:
[1] = Effect on PI3K/AKT/mTOR pathway in PTEN deficient human MDA468 cells assessed as inhibition of cyclin D3 level at 0.01 to 0.1 ug/mL after 16 hrs by Western blot; format: cell-based; details: MDA-MB-468
[2] = Effect on PI3K/AKT/mTOR pathway in PTEN deficient human MDA468 cells assessed as inhibition of S6K phosphorylation after 16 hrs by Western blot; format: cell-based; details: MDA-MB-468
[3] = Effect on PI3K/AKT/mTOR pathway in PTEN deficient human MDA468 cells assessed as inhibition of 4EBP1 phosphorylation after 16 hrs by Western blot; format: cell-based; details: MDA-MB-468
[4] = Effect on PI3K/AKT/mTOR pathway in PTEN deficient human MDA468 cells assessed as phosphorylated AKT level at 0.01 to 0.1 ug/mL after 16 hrs by Western blot; format: cell-based; details: MDA-MB-468
[5] = Effect on PI3K/AKT/mTOR pathway in PTEN deficient human MDA468 cells assessed as inhibition of S6 phosphorylation after 16 hrs by Western blot; format: cell-based; details: MDA-MB-468
[6] = system: MDA-MB-435; test: Growth inhibition of human MDA435 overexpressing PTEN after 3 days by MTS assay; format: functional; details: MDA-MB-435, 72 h
[7] = Effect on PI3K/AKT/mTOR pathway in PTEN deficient human MDA468 cells assessed as increase in p27Kip1 level at 0.01 to 0.1 ug/mL after 16 hrs by Western blot; format: cell-based; details: MDA-MB-468
[8] = Growth inhibition of PTEN deficient human MDA468 cells after 3 days by MTS assay; format: functional, cell-based; details: MDA-MB-468, 72 h

For CCCCCCC(C)C[C@@H](NC(=O)C(C)(C)NC(=O)C(C)(C)NC(=O)[C@H](CC(C)CC(O)CC(=O)CC)NC(=O)[C@@H]1CCCN1C(=O)CCC)C(=O)N[C@@H](CC(C)C)C(=O)NC(C)(C)C(=O)N[C@@H](CC(C)C)C(=O)NCCC(=O)NC(C)CNCCO (stereo partly drawn) [CULICININ D] (Butyryl-P[X1][Aib][Aib][X2]L[Aib]L[βAla]-X3), the Activity [1] was “Active”, the Activity [2] was “Dose-dependent effect” and the Activity [3] was “Dose-dependent effect”. The Activity [4] was “inactive”, the Activity [5] was “Dose-dependent effect” and the IC50 [6] was 1.6 µg/mL (≈ 1.3 µM). For the same molecule, the Activity [7] was “Active” and the IC50 [8] was < 0.007 µg/mL.
